From the Deep4Chem optical property database come the findings set out here.

A short description of this series: solvent given as SMILES.
Where [1] appears, read: in O=P(c1ccccc1)(c1ccccc1)c1ccccc1Oc1ccccc1P(=O)(c1ccccc1)c1ccccc1.

On to `CCN(CC)c1ccc(OC)c(C=O)c1`, for which the fluorescence lifetime (in CC#N) amounted to 12.5 ns; the fluorescence lifetime (in CC(C)O) worked out at 0.96 ns; the fluorescence lifetime (in CCCCCC) was determined as 7.78 ns; the fluorescence lifetime (in CCOC(C)=O) was determined as 12.5 ns; the fluorescence lifetime (in CS(C)=O) is 20.9 ns; the fluorescence lifetime (in Cc1ccccc1) is 12.5 ns. The compound also showed a fluorescence lifetime (in ClCCl) of 17 ns. Turning to `COC(=O)c1[nH]c(-c2ccccc2)c2nnc3c4ccccc4oc3c12`, the fluorescence lifetime (in ClCCl) came out at 3.36 ns.

Compound `CCCCCCCCCCOc1cc2cc(C#Cc3ccc(/C=C(\C#N)C(=O)O)cc3)c(=O)oc2cc1OCCCCCCCCCC` registered a fluorescence lifetime (in CC#N) of 1.1 ns.

In turn, `CCCCn1c2ccc(C#Cc3cccs3)cc2c2c1c1c3ccc(C#Cc4cccs4)cc3n(CCCC)c1c1c3ccc(C#Cc4cccs4)cc3n(CCCC)c21` had a fluorescence lifetime (in C1CCOC1) of 3.8 ns. Under “in C1CCOC1”, `CC(C)(C)c1ccc(C2=C(c3ccc(-n4c5ccccc5c5ccccc54)cc3)S(=O)(=O)c3c2sc(-c2ccc(-n4c5ccccc5c5ccccc54)cc2)c3-c2ccc(C(C)(C)C)cc2)cc1` registered a fluorescence lifetime of 0.47 ns. Take `C(=C\c1ccc(N(c2ccc(/C=C/c3ccc(N(c4ccccc4)c4ccccc4)cc3)cc2)c2ccc(-c3nc4ccccc4nc3-c3ccc(N(c4ccc(/C=C/c5ccc(N(c6ccccc6)c6ccccc6)cc5)cc4)c4ccc(/C=C/c5ccc(N(c6ccccc6)c6ccccc6)cc5)cc4)cc3)cc2)cc1)/c1ccc(N(c2ccccc2)c2ccccc2)cc1`: the fluorescence lifetime (in C1CCOC1) amounted to 1.5 ns. In the case of `CCN(CC)c1ccc2cc(C#N)/c(=N\C(=O)c3ccccc3)oc2c1`, where the note is “in ClCCl”, the fluorescence lifetime is 3 ns.

As to `Cc1ccc(C2=[N+]3C(=Cc4c(C)cc(C)n4[B-]3(F)F)c3ccccc32)[nH]1`, the fluorescence lifetime reads like this: (in C1CCOC1) 6.54 ns; (in CC#N) 6.32 ns; (in CCCCCC) 7.31 ns; (in CO) 6.5 ns; (in Cc1ccccc1) 6.17 ns; (in ClCCl) 6.65 ns.

`CC(C)(C)c1ccc(-c2c3cccc4c(-c5ccccc5)cc5c(-c6ccc(C(C)(C)C)cc6)c6cccc7c(-c8ccccc8)cc2c(c76)c5c43)cc1` came in with a fluorescence lifetime (in ClCCl) of 2.98 ns. As for `Nc1ccc2c(c1)C(=O)N(C13C[C@H]4C[C@@H](C1)C[C@@H](C3)C4)C2=O`, the fluorescence lifetime came out at 10.7 ns (in C1CCCCC1); 18.2 ns (in C1CCOC1); 19 ns (in CC#N); 17 ns (in CCOC(C)=O); 9.49 ns (in CO); 22.4 ns (in CS(C)=O). For the same compound, the fluorescence lifetime was 17.3 ns (in Cc1ccccc1) and 24.6 ns (in ClCCl).

The compound `Cc1cccc2[n+]1[B-](F)(F)n1c(c3cccc4cccc1c43)=N2` returned a fluorescence lifetime (in ClCCl) of 7.1 ns. Compound `Cn1c2ccccc2c2cc(/C=C/C3=[O+][B-](F)(F)OC(/C=C/c4ccc5c(c4)c4ccccc4n5C)=C3c3ccccc3)ccc21` returned a fluorescence lifetime (in ClCCl) of 2.15 ns. With `COc1ccc2cc3c(C)cc(=O)oc3cc2c1`, the fluorescence lifetime is 0.35 ns (in CC#N); 4.2 ns (in CCO); 0.066 ns (in CCOC(C)=O); 6.7 ns (in CO); 0.57 ns (in ClC(Cl)Cl); 13 ns (in OCC(F)(F)F).

Compound `CCCCCCCCCCCCN1C(=O)c2c(c3ccc4cc(-c5ccc(C#N)cc5)c(OC)cc4c3c3c2ccc2cc(-c4ccc(C#N)cc4)c(OC)cc23)C1=O` returned a fluorescence lifetime (in ClCCl) of 6.3 ns. Consider `COc1ccc2c3c([nH]c2c1)C(C)=NCC3`, for which the fluorescence lifetime runs as follows: (in CC#N) 5.29 ns; (in CS(C)=O) 2.91 ns; (in O) 4.65 ns.

`CC1(C)c2ccccc2N(c2ccc(C(=C(C#N)C#N)c3ccc(N4c5ccccc5C(C)(C)c5ccccc54)cc3)cc2)c2ccccc21` had a fluorescence lifetime (in Cc1ccccc1) of 3.1 ns. The compound `c1ccc2c(c1)c1ccc3cccc4c3c1c2c1c2cccc3ccc5c6ccccc6c(c5c32)c41` returned a fluorescence lifetime (in ClCCl) of 0.75 ns.

As for `Nc1ccc(/C=C/c2cccnc2)cc1`, the fluorescence lifetime amounted to 0.18 ns (in CC#N) and 0.22 ns (in CCCCCC). As to `Clc1ccc(/C=C/c2nc3ccccc3o2)cc1`, the fluorescence lifetime is, setting by setting: (in C1CCCCC1) 0.2 ns; (in CO) 0.16 ns. As to `Cc1ccc(-c2cc(-c3ccccc3)c(C#N)c(=S)[nH]2)cc1`, the fluorescence lifetime is 4.92 ns (in CC#N), 4.79 ns (in CCO) and 1.22 ns (in ClC(Cl)(Cl)Cl). Turning to `C(=C\c1nc(/C=C/c2ccc(-n3c4ccccc4c4ccccc43)cc2)nc(/C=C/c2ccc(-n3c4ccccc4c4ccccc43)cc2)n1)/c1ccc(-n2c3ccccc3c3ccccc32)cc1`, the fluorescence lifetime reads like this: (in C1CCOC1) 3.31 ns; (in CC#N) 2.03 ns; (in Cc1ccccc1) 3.87 ns; (in ClCCl) 4.03 ns.

Regarding `[O-][n+]1c(-c2ccc(Br)cc2)cc(N2CCOCC2)nc1/C=C/c1ccccc1`, under “in ClCCl”, the fluorescence lifetime is 3.7 ns. In turn, `COc1ccc(-c2csc(/C(C#N)=C/c3ccccc3Cl)n2)cc1` showed a fluorescence lifetime (in CC#N) of 3.93 ns. In the case of `O=C(O)CCCc1cc2ccc3cccc4ccc(c1)c2c34`, the fluorescence lifetime (in CO) was 622 ns.

In turn, `CCCCOC(=O)c1cc(Oc2ccc(C(C)(C)C)cc2)c2c3c(Cl)cc4c5c(cc(Cl)c(c6c(Oc7ccc(C(C)(C)C)cc7)cc(C(=O)OCCCC)c1c26)c53)C(=O)N(c1c(C(C)C)cccc1C(C)C)C4=O` showed a fluorescence lifetime (in Cc1ccccc1) of 6.42 ns. As for `CC(C)[Si]1(C(C)C)c2cc(C#N)ccc2-c2ccc(N(C)C)cc21`, the fluorescence lifetime runs as follows: (in C1CCCCC1) 2.6 ns; (in ClCCl) 2.6 ns. Turning to `Cc1ccc(-n2c3ccccc3c3cc(-c4ccc5[n+](c4)[B-](F)(F)n4c-5nc5c6ccccc6c6ccccc6c54)ccc32)cc1`, under “in ClC(Cl)Cl”, the fluorescence lifetime came to 15 ns. As to `CC(C)(C)c1ccc(N2c3ccc(C(C)(C)C)cc3B3c4cc(C(C)(C)C)ccc4N(c4ccc(C(C)(C)C)cc4)c4cc(-n5c6ccc(C(C)(C)C)cc6c6cc(C(C)(C)C)ccc65)cc2c43)cc1`, the fluorescence lifetime (in Cc1ccccc1) is 6.02 ns. Under “in ClC(Cl)Cl”, `CCCCc1cc(-c2cccc(COC)c2)oc1-c1cccc(-c2cc(CCCC)c(-c3cccc(-c4cc(CCCC)c(-c5cccc(-c6oc(-c7cccc(-c8oc(-c9cccc(-c%10oc(-c%11cccc(COC)c%11)cc%10CCCC)c9)cc8CCCC)c7)cc6CCCC)c5)o4)c3)o2)c1` had a fluorescence lifetime of 1.35 ns. As to `CC(O)CC1=N/C(=C\c2cccc(N(C)C)c2)C(=O)N1C` (stereo not drawn), the fluorescence lifetime reads like this: (in C1CCOC1) 13.2 ns; (in CC#N) 5.2 ns; (in CCCCCC) 18.9 ns. `Cc1cc(C)c(B(c2ccccc2-n2c3ccccc3c3ccccc32)c2c(C)cc(C)cc2C)c(C)c1` came in with a fluorescence lifetime (in Cc1ccccc1) of 38 ns. `CCOC(=O)c1ccc2c(c1)[nH]c1c3ccc(C(=O)OCC)cc3[nH]c21`: the fluorescence lifetime (in CCCO) came to 4.75 ns. `COC(=O)c1cc(=O)n(C)c2cc(-c3ccc4c(c3)OCO4)sc12` gave a fluorescence lifetime (in ClCCl) of 1.72 ns. In the case of `O=S(=O)(c1ccc(N2c3ccccc3Oc3ccccc32)cc1)c1ccc(N2c3ccccc3Oc3ccccc32)cc1`, the fluorescence lifetime amounted to 19 ns (in C1COCCO1); 4.3 ns (in CC(C)=O); 15 ns (in Cc1ccccc1); 16 ns (in ClC(Cl)Cl); 14 ns (in c1cc(-n2c3ccccc3c3ccccc32)cc(-n2c3ccccc3c3ccccc32)c1). Take `Nc1ccc2ccc([O-])cc2c1`: the fluorescence lifetime (in O) is 2.27 ns. `O=c1c2cc(Cl)ccc2[nH]c2ccc(COO)cc12`: the fluorescence lifetime (in O) came out at 16.8 ns. Compound `CCN(CC)c1ccc2cc(C#N)/c(=N\C(=O)C(C)C)oc2c1` showed a fluorescence lifetime (in ClCCl) of 3.1 ns. `COc1c(-c2ccc(N(C)C)cc2)oc2ccccc2c1=O`: the fluorescence lifetime runs as follows: (in C1CCCCC1) 0.67 ns; (in C1CCOC1) 2.05 ns; (in CC#N) 2.71 ns; (in CCOC(C)=O) 1.67 ns; (in CCOCC) 0.88 ns. `c1ccc(-c2nc(-c3ccccc3)nc(-c3ccc(-n4c5ccccc5c5cc6c(cc54)C(c4ccccc4)(c4ccccc4)c4ccccc4-6)cc3)n2)cc1` came in with a fluorescence lifetime under setting [1] of 10.3 ns.

In turn, `c1ccc([C@]23CC[C@H](CC2)N=N3)cc1` returned a fluorescence lifetime (in CC#N) of 2.5 ns. The compound `COc1cc(/C=C/c2nc(N3CCOCC3)c3c([n+]2[O-])CCCC3)cc(OC)c1OC` gave a fluorescence lifetime (in ClCCl) of 8.5 ns. Take `CNc1cccc2c1-c1ccccc1C2=O`: the fluorescence lifetime by setting is: (in C1CCCCC1) 8.8 ns; (in CC#N) 2.2 ns; (in c1ccccc1) 8.4 ns. In turn, `c1ccc(-c2cc(-c3ccc(N4c5ccccc5C(c5ccccc5)(c5ccccc5)c5ccccc54)cc3)nc(-c3ccccc3)n2)cc1` displayed a fluorescence lifetime under setting [1] of 8.02 ns.

As to `N#Cc1ccc(-c2cc(-c3ccc(N4CCCC4)cc3)nc(-c3ccccc3)n2)cc1`, the fluorescence lifetime (in ClC(Cl)Cl) amounted to 3.3 ns. Where the note is “in CC#N”, `O=c1[nH]c(=O)c2nc3ccccc3nc2[nH]1` had a fluorescence lifetime of 0.35 ns. In the case of `Cc1ccc(S(=O)(=O)/N=c2\oc3cccc4c5c(-c6ccccc6)oc6cccc(c(c2-c2ccccc2)c34)c65)cc1`, the fluorescence lifetime (in ClC(Cl)Cl) was determined as 3.4 ns. For the compound `C=CCNS(=O)(=O)c1ccc2c(c1)C(=O)/C(=C1\Sc3ccc(S(=O)(=O)NCC=C)cc3C1=O)S2`, the fluorescence lifetime (in CN(C)C=O) worked out at 8.17 ns and the fluorescence lifetime (in CS(C)=O) was 0.06 ns. Consider `CCCCCCCCN(CCCCCCCC)c1ccc(/C=C/c2ccc(C#Cc3ccc(-c4ccc(C#Cc5ccc(/C=C/c6ccc(N(CCCCCCCC)CCCCCCCC)cc6)cc5)cc4)cc3)cc2)cc1`, for which the fluorescence lifetime (in Cc1ccccc1) worked out at 0.4 ns. In the case of `c1ccc(-c2cc3cccc[n+]3[b-]3c(-c4cccc5[b-]4[n+]4ccccc4cc5-c4ccccc4)cccc32)cc1`, for the setting “in C1CCCCC1”, the fluorescence lifetime worked out at 4.5 ns. `CC1=CC(C)=[N+]2C1=C(c1ccc(I)cc1)c1c(C)cc(C)n1[B-]2(F)F`: for the setting “in ClC(Cl)Cl”, the fluorescence lifetime amounted to 3.11 ns. On to `CC(C)(C)c1ccc2c(c1)c1cc(C(C)(C)C)ccc1n2-c1ccc(C#Cc2ccccc2)cc1`, for which the fluorescence lifetime reads like this: (in CC#N) 4.75 ns; (in CCCCC) 2.07 ns; (in CO) 4.99 ns; (in Cc1ccccc1) 1.77 ns; (in ClC(Cl)Cl) 2.39 ns; (in ClCCl) 3.91 ns.

Take `Cc1sc(-c2ccc(-c3nc(-c4ccccc4)c(-c4ccccc4)[nH]3)cc2)c(C)c1C1=C(c2c(C)n(C)c3ccccc23)C(F)(F)C(F)(F)C1(F)F`: for the setting “in C1CCOC1”, the fluorescence lifetime is 0.48 ns.
